# From patent US20240269296A1, “ANTIOXIDANT NUCLEOLIPID PRODRUG, PHARMACEUTICAL COMPOSITION FOR ADMINISTRATION THEREOF, AND THERAPEUTIC USES THEREOF” (UNIVERSITE DE BORDEAUX, priority 2021, published 2024)
# System: keratinocytes
# Experiment: Antioxidant effect on keratinocytes: ROS by flow cytometry with CM-H2DCFDA after solar simulator irradiation
# Type: cell-based
# Conditions: 2nd experiment: incubation 48 h, 0.5% w/v in the culture medium
# Description: The assessment of the antioxidant effect of the compositions C3 and C4 according to the invention has been based on the dosage of the amount of reactive oxygen species (ROS) produced in the medium by flow cytometry, after setting the cells treated with these compositions in presence with the oxidative stress indicator CM-H2DCFDA (5-(and-6)-chlorométhyl-2′,7′-dichlorodihydrofluorescein diacetate, acetyl ester) (Invitrogen®). By cleavage of its acetate groups with esterases and its intracellular oxidation by the ROS, this non-fluorescent indicator is converted into highly-fluorescent dichlorofluorescein 2′,7′ (DCF). Thus, the measurement of the fluorescence intensity allows deducing the amount of DCF, and consequently of ROS, in the cell medium. […]
# Afterwards, the cells have been detached by tryptinisation by means of trypsin at 0.0025% and EDTA at 0.01% for 10 min at 37° C., neutralised by fetal calf serum at 10% and separated from the medium by centrifugation. […] Afterwards, the fluorescence has been read by a flow cytometer Accuri® 6.
# The obtained results, expressed in % of mean fluorescence intensity (MFI) with respect to the non-irradiated (and without C4) control condition, are shown in FIG. 11. […]
structure (smiles),measurement,value
Cc1c(C)c2c(c(C)c1O)CC[C@@](C)(CCC[C@H](C)CCC[C@H](C)CCCC(C)C)O2 [α-tocopherol],production of ROS (% of mean fluorescence intensity vs non-irradiated control),strongly inhibits the production of ROS
